In patent US8367328B2, “Method for synthesizing DNA” (Takara Bio Inc., priority 1998, dated 2013):

Tested on: LA-Taq DNA Polymerase
Experiment: PCR with LA-Taq DNA Polymerase in the presence of cationic complexes (GC-rich region, long chain)
Assay type: biochemical
Conditions: for DNA synthesis reaction when amplifying GC-rich region: human ApoE genomic region 441 bp, GC about 74%, 100 ng HT29 genomic DNA, complex 50, 100, 200 or 500 μM, no amplification without addition
Description: The effects on addition of the cationic complex were examined when PCR amplification was carried out with a GC-rich region as a target. As the cationic complex, there was used tris(ethylenediamine)cobalt (III) chloride, or tris(ethylenediamine)rhodium (III) trichloride•trihydrate. Template DNA was prepared from HT29 cells by conventional method. Amplified region and amplified chain lengths were human ApoE genomic region and 441 bp. The GC content of this amplified region was about 74%. As DNA polymerase, TaKaRa LA-Taq DNA Polymerase (manufactured by Takara Shuzo Co., Ltd., hereinafter referred to as “LA-Taq DNA Polymerase”) was used. The composition for a reaction mixture is shown below.
25 μl of 2×GC buffer I (manufactured by Takara Shuzo Co., Ltd.), 0.4 mM each of dATP, dCTP, dGTP and dTTP, 2.5 U of LA-Taq DNA Polymerase, 100 ng of HT29 cells genomic region, and 20 pmol each of primers ApoE-1 and ApoE-2 (a final volume being 50 μl). Each of the above cationic complex was added to the above reaction mixture so as to have a final concentration of 50, 100, 200, or 500 μM, respectively.
The reaction was carried out in Fast mode by using TaKaRa PCR Thermal Cycler Personal. As regarding the reaction conditions, the reaction in 30 cycles was carried out, wherein one cycle of reaction comprises a process consisting of 98° C., 5 seconds—64° C., 10 seconds—72° C., 40 seconds. On the other hand, as a control, the reaction for one without addition of the cationic complex was carried out in the same manner.
After the termination of the reaction, 5 μl of each of the resulting reaction mixtures was subjected to electrophoresis on 2% agarose gel containing ethidium bromide in an amount of 0.00005%. The gel after the electrophoresis was subjected to ultraviolet irradiation to visualize the band ascribed to the amplified product, whereby an amplified fragment was confirmed.
The effects on the amplified chain length when adding a cationic complex were examined. As the cationic complex, there was used hexaamminecobalt (III) trichloride. […]

Structure (SMILES) | DNA synthesis reaction when amplifying GC-rich region | Amplification of desired long DNA fragment (LA-Taq, 1 ng λDNA, primers λL36/λR485 (48.5 kb), 30 cycles 98°C 10 s–68°C 15 min, 50 μM, only slight without addition)
NCCN.NCCN.NCCN.[Cl-].[Cl-].[Cl-].[Co+3] [[Co(H2NCH2CH2NH2)3]Cl3, tris(ethylenediamine)cobalt (III) chloride] | enhanced as the concentration of added complex was increased | –
N.N.N.N.N.N.[Cl-].[Cl-].[Cl-].[Co+3] [[Co(NH3)6]Cl3, hexaamminecobalt (III) chloride] | – | excellently amplified
NCCN.NCCN.NCCN.O.O.O.[Cl][Rh]([Cl])[Cl] [[Rh(H2NCH2CH2NH2)3]Cl3, tris(ethylenediamine)rhodium (III) trichloride•trihydrate] | enhanced as the concentration of added complex was increased as 100 μM, 200 μM and 500 μM | –
